Where two headings read alike, the source gives them in different places. One block for each compound: values may come before it.
Tests used:
[1] = test system: bacteria carrying carbapenemases; set-up: method as in Chiou et al., 2015; conditions: ref Chiou et al., 2015; cited from earlier work
[2] = test system: NDM-1; conditions: ref Chiou et al., 2015; read-out: IC50 for inhibiting NDM-1 in the hydrolysis of imipenem; cited from earlier work
[3] = set-up: method as in Hecker et al., 2020; conditions: rats; ref Hecker et al., 2020; cited from earlier work
[4] = target: T1, NDM-1 (Klebsiella pneumoniae, UniProt C7C422); test: Enzyme inhibition assay (nitrocefin hydrolysis); type: biochemical
T1 construct: made in house; host or cells: E. coli BL21
T1 sequence (C7C422 29-270, looked up): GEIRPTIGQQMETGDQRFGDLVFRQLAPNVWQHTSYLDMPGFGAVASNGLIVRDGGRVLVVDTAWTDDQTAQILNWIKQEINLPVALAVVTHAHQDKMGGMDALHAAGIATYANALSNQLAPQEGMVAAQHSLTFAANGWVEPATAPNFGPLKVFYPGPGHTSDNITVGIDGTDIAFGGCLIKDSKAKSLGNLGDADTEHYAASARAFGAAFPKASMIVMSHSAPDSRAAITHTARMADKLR
Experimental: (§1) According to the methodology of Liu et al. the enzyme and nitrocefin were mixed and incubated at 37°C for 10 min. Consequently, absorbance was measured at 492 nm in a microplate reader. The specific calculation method was obtained from the literature ([Liu et al., 2018b]).

[5] = target: T2, F46A-NDM-1 (Klebsiella pneumoniae, UniProt C7C422, F46A); test: Enzyme reaction rate (steady-state kinetics, nitrocefin); type: biochemical, E. coli; conditions: F46A treated with carnosic acid
T2 sequence (C7C422 29-270 F46A): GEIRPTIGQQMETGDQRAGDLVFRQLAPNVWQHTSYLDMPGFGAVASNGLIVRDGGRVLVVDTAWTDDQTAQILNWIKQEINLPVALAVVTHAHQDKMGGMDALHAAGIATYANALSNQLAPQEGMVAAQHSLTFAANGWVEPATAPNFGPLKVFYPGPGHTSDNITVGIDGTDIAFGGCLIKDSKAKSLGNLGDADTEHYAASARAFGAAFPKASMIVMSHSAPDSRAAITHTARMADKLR
Experimental: (§2) The principle of the measurement is mainly by using nitrocefin as an indicator, and its color changes from yellow to red with the increase of hydrolysis. NDM-1 (250 ng/ml) was incubated with various concentrations of carnosic acid in phosphate buffered saline, and then 50 μg/m L of nitrocefin was added to the mixture ([Teng et al., 2019]). The reaction rate was determined by continuously measuring the absorbance at OD492 nm at different times ([Krupyanko, 2009]).

[6] = target: T3, T94A-NDM-1 (Klebsiella pneumoniae, UniProt C7C422, T94A); test: as above; type: biochemical, E. coli; conditions: T94A treated with carnosic acid
T3 sequence (C7C422 29-270 T94A): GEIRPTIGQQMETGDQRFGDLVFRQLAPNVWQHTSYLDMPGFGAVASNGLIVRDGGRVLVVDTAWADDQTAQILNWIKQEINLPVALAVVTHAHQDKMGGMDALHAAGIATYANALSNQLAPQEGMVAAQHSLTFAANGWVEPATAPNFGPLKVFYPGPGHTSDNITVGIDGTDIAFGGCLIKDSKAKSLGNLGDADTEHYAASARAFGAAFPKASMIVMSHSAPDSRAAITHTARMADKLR
Experimental: as §2

[7] = target: T4, L65A-NDM-1 (Klebsiella pneumoniae, UniProt C7C422, L65A); test: as above; type: biochemical, E. coli; conditions: L65A treated with carnosic acid
T4 sequence (C7C422 29-270 L65A): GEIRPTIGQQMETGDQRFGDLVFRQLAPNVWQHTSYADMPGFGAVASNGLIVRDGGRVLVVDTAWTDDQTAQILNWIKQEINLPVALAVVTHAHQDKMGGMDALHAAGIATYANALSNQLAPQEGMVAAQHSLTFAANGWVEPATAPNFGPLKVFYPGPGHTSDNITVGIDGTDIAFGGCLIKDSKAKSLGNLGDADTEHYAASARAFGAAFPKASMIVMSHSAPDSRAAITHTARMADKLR
Experimental: as §2

[8] = target: T5, WT-NDM-1 (Klebsiella pneumoniae, UniProt C7C422); test: as above; type: biochemical, E. coli; conditions: WT-NDM-1 treated with carnosic acid
T5 construct: made in house; host or cells: E. coli BL21
T5 sequence (C7C422 29-270 limits assumed): as the sequence (C7C422 29-270, looked up) above
Experimental: as §2

[9] = test system: F46A-NDM-1, L65A-NDM-1, T94A-NDM-1 mutants; test: Enzyme inhibition assay with NDM-1 mutants; type: biochemical, E. coli; conditions: Figure 5E
Excerpt: The coding sequence of the NDM-1 gene were amplified from genomic DNA of E. coli and digested with BamHI and XhoI. Subsequently, it was cloned into pET28a to generate plasmid pET28a-NDM-1. Plasmids encoding F46A-NDM-1, L65A-NDM-1, and T94A-NDM-1 were constructed using a QuikChange site-directed mutagenesis kit. The ligation product was transformed into competent E. coli DH5α cells. All constructed strains were verified by PCR and DNA sequencing ([Ali et al., 2018]). The NDM-1 primer came from the literature ([Teng et al., 2019]), and the other primers were designed in this experiment.
as §1

[10] = test system: mice; conditions: acute toxicity study, ref Wang et al., 2012; cited from earlier work
[11] = target: T2, F46A-NDM-1; test: Fluorescence-quenching assay; type: binding, E. coli; conditions: F46A-NDM-1, 300 K
Experimental: (§3) The binding constant (KA) of the binding site of carnosic acid to wild type NDM-1 (WT-NDM-1), F46A-NDM-1, L65A-NDM-1, and T94A-NDM-1 was measured using a fluorescence quenching method. The binding energy was calculated according to the equation: r/Df = nK − rK. This method referred to the previous literature ([Wang J. F. et al., 2015]), using an excitation wavelength of 280 nm and an emission wavelength of 345 nm.

[12] = target: T3, T94A-NDM-1; test: Fluorescence-quenching assay; type: binding, E. coli; conditions: T94A-NDM-1, 300 K
Experimental: as §3

[13] = target: T4, L65A-NDM-1; test: Fluorescence-quenching assay; type: binding, E. coli; conditions: L65A-NDM-1, 300 K
Experimental: as §3

[14] = target: T5, WT-NDM-1; test: Fluorescence-quenching assay; type: binding, E. coli; conditions: WT-NDM-1, 300 K
Experimental: as §3

[15] = test system: E. coli ZC-YN3 (producing NDM-1); test: MIC by broth microdilution / checkerboard; type: cell-based; conditions: Escherichia coli
[16] = test system: E. coli ZC-YN3; test: Growth curves; type: cell-based, Escherichia coli; conditions: carnosic acid alone, Figure 2A
[17] = test system: E. coli ZC-YN3; test: Time-killing assay; type: cell-based, Escherichia coli; conditions: after 4 hours
[18] = screening hits, Figure 1A, read-out: IC50 (converted)

Compound: C[C@H](CS)C(=O)N1CCC[C@H]1C(=O)O [L-captopril]
- effect on bacteria carrying carbapenemases [1]: no effect

Compound: C[C@H](CS)C(=O)N1CCC[C@@H]1C(=O)O [D-captopril]
- effect on bacteria carrying carbapenemases [1]: no effect

Compound: O=C(O)c1c(F)ccc2c1OB(O)[C@@H]1C[C@H]21 [QPX7728]
- oral bioavailability [3]: good oral bioavailability

- IC50 [4, 18]: 218 µM
Compound: CCCCC/C=C\C/C=C\CCCCCCCC(=O)O [Linolate]

Compound: O=C(O)/C=C/c1ccccc1 [Cinnamic Acid]
- IC50 [4]: 225 µM

- IC50 [4, 18]: 152 µM
Compound: O=c1c(-c2ccc(O[C@@H]3O[C@H](CO)[C@@H](O)[C@H](O)[C@H]3O)cc2)coc2cc(O)cc(O)c12 [Sophoricoside]

Compound: COc1cc(O)cc2c1C(=O)C[C@@H](c1ccccc1)O2 [Alpinetin]
- IC50 [4]: 122 µM

Compound: O=C1C[C@@H](c2ccc(O[C@@H]3O[C@H](CO)[C@@H](O)[C@H](O)[C@H]3O)cc2)Oc2cc(O)ccc21 [Liquiritin]
- IC50 [4]: 130 µM

Compound: CC(C)c1cc2c(c(O)c1O)[C@@]1(C(=O)O)CCCC(C)(C)[C@@H]1CC2 [carnosic acid]
- hydrolysis reaction rate (slope of absorbance at 492 nm vs time) [5]: 0.0225
- hydrolysis reaction rate (slope of absorbance at 492 nm vs time) [6]: 0.02277
- hydrolysis reaction rate (slope of absorbance at 492 nm vs time) [7]: 0.02164
- hydrolysis reaction rate (slope of absorbance at 492 nm vs time) [8]: 0.00742
- effect on the activity of mutants [9]: no obvious effect on the activity of mutants
- oral lethal dose [10]: greater than 7000 mg/kg
- Binding constants K [11]: 0.1272 mL/µg
- Binding constants K [12]: 0.3291 mL/µg
- Binding constants K [13]: 0.336 mL/µg
- Binding constants K [14]: 0.4564 mL/µg
- MIC [15]: > 32 µg/mL
- effect on growth [16]: nor inhibitory effect on the growth of E. coli ZC-YN3
- IC50 [4]: 27.1 µM
- decrease of protein activity ([4]; 8 μg/ml carnosic acid): 48.56%
- activity of the protein (remaining) ([4]; 32 μg/ml carnosic acid): 19.85%

- MIC ([15]; meropenem alone, read-out: MIC of meropenem): 16 µg/mL
Compound: C[C@@H](O)[C@H]1C(=O)N2C(C(=O)O)=C(S[C@@H]3CN[C@H](C(=O)N(C)C)C3)[C@H](C)[C@H]12 [Meropenem, meropenem, reference compound]
- inhibitory effect on E. coli (time-kill) [17]: weakened

Compound: O=C(/C=C/c1ccc(O)cc1)c1ccc(O)cc1O [6'-Deoxychalcone]
- IC50 [4]: 163 µM

- IC50 [4, 18]: 355 µM
Compound: C[N+](C)(C)CC(=O)O [Betaine]
